Entries after “also recorded” stand apart in the source; their conditions may differ.
Tests used:
mOREG = target: T1, mOREG (Mus musculus, UniProt Q920P2); assay: CRE luciferase reporter assay (Firefly:Renilla ratio), mOREG constructs; assay type: cell-based, murine; conditions: Rho-mOREG, Lucy-mOREG, no RTP1S, 100-300 μM eugenol
T1 construct: The mOR-EG full-length construct, containing N-terminal Flag/Rho tags; only in the L-EG and L-R-EG constructs) (N, cleaved yes); expressed in transfected cells; host or cells: HEK293T
T1 sequence (Q920P2 1-313): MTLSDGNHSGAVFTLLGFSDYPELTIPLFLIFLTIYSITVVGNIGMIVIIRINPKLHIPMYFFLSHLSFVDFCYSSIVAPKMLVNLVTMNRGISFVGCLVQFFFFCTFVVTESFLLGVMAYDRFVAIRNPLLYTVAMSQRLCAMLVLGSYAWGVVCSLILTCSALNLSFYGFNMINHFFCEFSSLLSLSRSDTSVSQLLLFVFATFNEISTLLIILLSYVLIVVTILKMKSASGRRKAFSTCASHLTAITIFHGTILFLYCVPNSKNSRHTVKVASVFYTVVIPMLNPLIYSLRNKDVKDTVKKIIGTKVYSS
Procedure: The luciferase assay was performed as previously described. Briefly, ORs were transfected into HEK293T cells along with constructs encoding for CREB-dependent luciferase (Firefly) and a constitutively expressed luciferase (Renilla). OR activation leads to a rise in cAMP which drives an increase in Firefly luciferase expression. Firefly activity is normalized to the activity of the Renilla luciferase to control for variation in cell number and transfection efficiency. Data were collected using a FLUOstar Omega automated platereader (BMG LabTech, Cary, N.C.). For some experiments, RTP1S was also transfected.
One-way ANOVA analysis followed by the Student-Newman Keuls test was performed on the luciferase reporter assay to compare the doses of isovaleric acid (0.1-5 mM) or eugenol (100-300 μM) to the non-treated control (0 μM). As each condition was performed in triplicate, the analyses were done with an n=3, and P values ≦0.05 were deemed significant. One-way ANOVE followed by Student-Newman Keuls was also used to analyze the surface expression data in FIG. 7. […]
As mOREG is one of the ORs that reach the cell surface under every condition tested, we expressed the OR with and without the Lucy and Rho tags and assessed its response to eugenol.

Olfr691 = target: T2, Olfr691 (Mus musculus, UniProt Q8VGW5); assay: CRE luciferase reporter assay (Firefly:Renilla ratio), Olfr691 constructs; conditions: 0.1-5 mM isovaleric acid
T2 sequence (Q8VGW5 1-322): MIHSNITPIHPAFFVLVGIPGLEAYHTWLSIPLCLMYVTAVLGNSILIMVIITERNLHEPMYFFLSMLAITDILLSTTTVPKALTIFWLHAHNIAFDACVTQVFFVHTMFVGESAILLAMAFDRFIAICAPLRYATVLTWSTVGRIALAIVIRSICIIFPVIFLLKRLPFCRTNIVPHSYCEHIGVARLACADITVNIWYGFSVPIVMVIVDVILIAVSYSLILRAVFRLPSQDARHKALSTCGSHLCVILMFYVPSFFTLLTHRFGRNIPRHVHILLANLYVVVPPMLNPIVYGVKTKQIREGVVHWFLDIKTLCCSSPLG

SMILES | OR activation (Firefly:Renilla ratio) (mOREG) | OR activation (Firefly:Renilla ratio) (Olfr691; Lucy-Rho-Olfr691 with and without RTP1S) | OR activation (Firefly:Renilla ratio) (Olfr691; Rho-Olfr691 co-expressed with RTP1S) | OR activation (Firefly:Renilla ratio) (Olfr691; Rho-Olfr691 without RTP1S)
C=CCc1ccc(O)c(OC)c1 [eugenol] | all concentrations of eugenol significantly activated; also recorded: dose-dependent activation |  |  | 
CC(C)CC(=O)O [isovaleric acid] |  | responded to isovaleric acid in a dose-dependent manner | dose-dependent increase in the Firefly:Renilla ratio | no concentrations of isovaleric acid activated R-691; also recorded: not significantly activated at any concentration

Reference: patent US20150087053A1, “COMPOSITIONS AND METHODS FOR INCREASING THE EXPRESSION AND SIGNALLING OF PROTEINS ON CELL SURFACES” (THE JOHNS HOPKINS UNIVERSITY, priority 2013, published 2015)
